The text below walks through data of patent US5523457A, “Retinoid-like compounds” (Bristol-Myers Squibb Company, priority 1995, dated 1996).

Molecules are shown by their SMILES. Read-outs that look alike come from different tables or passages of the source.

The subject of one assay is lung line L2987. The experiment in a line: Cytotoxicity assay (alamarBlue cell viability), lung line L2987, experiment 2. It is filed as cell-based. The settings on record: Homo sapiens. How it is done: FIG. 1 is the cytotoxicity dose response curves for lung line L2987. […] Briefly, the assayed involved plating 1000 cells per well in a volume of 120 μL in a 96 well flat-bottom dish (Corning) on day -1. Twenty-four hours later the appropriate dilution of a compound of formula I was added in a volume of 30 μL complete medium (final volume 150 μL). The plates were sealed with a plate sealer (Dynatech Labs) to prevent evaporation. On day 5 the mylar film was removed and 15 μL of sterile alamarBlue was added to each well and the cells were incubated 37° C. 5% CO2 for two hours. Using a Vmax plate reader the optical density for each well was determined having the […]. The 100% signal was determined for cells grown in complete medium containing only 0.5% DMSO. All wells were set-up in triplicate and the mean values were plotted in FIG. 1.

Assay [1] relates to second primary tumors in squamous-cell carcinoma of the head and neck. As to conditions: Hong et al., N. Engl. J. Med., 1990; cited from earlier work.
Setting [2] is: L2987 lung line, 1000 cells per well, compound added 24 h after plating, read on day 5 with alamarBlue, triplicate wells, read-out: IC50 values for L2987 experiment 2.

`Cc1ccc(-c2cccc3ccc(C(=O)Nc4ccc(C(=O)O)cc4)cc23)c(C)c1` [I^2' g, 4-[[[8-(2,4 -Dimethylphenyl)-2-naphthalenyl]carbonyl]amino]benzoic acid]: in the assay with lung line L2987 (setting [2]), the concentration for half-maximal inhibition (IC50) worked out at 54 µM.
With `O=C(O)c1ccc(NC(=O)c2ccc3cccc(-c4ccccc4)c3c2)cc1` [I^2' a, 4-[[(8-phenyl-2-naphthalenyl)carbonyl]amino]benzoic acid], in the assay with lung line L2987 (setting [2]), the concentration for half-maximal inhibition (IC50) worked out at 72 µM.
On the same count and under the same terms, the figure for `Cc1cc(C)cc(-c2cccc3ccc(C(=O)Nc4ccc(C(=O)O)cc4)cc23)c1` [I^2' b, 4-[[[8(3,5-Dimethylphenyl)-2-naphthalenyl]carbonyl]amino]benzoic acid] is 39 µM; for `Cc1ccc(-c2cccc3ccc(C(=O)Nc4ccc(C(=O)O)cc4)cc23)cc1C` [I^2' f, 4-[[[8-(3,4-Dimethylphenyl)-2-naphthalenyl]carbonyl]amino]benzoic acid] it is 49 µM.
With `CC1=C(/C=C/C(C)=C/C=C/C(C)=C/C(=O)O)C(C)(C)CCC1` [All trans retinoic acid, reference compound], the half-maximal inhibitory concentration (IC50) in the assay on lung line L2987 (L2987, read-out: IC50 values for L2987 experiment 2) was determined as 68 µM.
Regarding `CC1=C(/C=C/C(C)=C/C=C/C(C)=C\C(=O)O)C(C)(C)CCC1` [Isotretinoin], the “prevention of second primary tumors in squamous-cell carcinoma of the head and neck” value in assay [1] is listed as “shown to be useful in prevention of second primary tumors”.
